This is an account of results in patent publication US11992500B2, “Use of methylation inhibitors for the treatment of autoimmune diseases” (Rush University Medical Center, priority 2018, dated 2024).

Data set [1] has as its system B cells of mice with PGIA. The experiment in a line: Molecular, cellular and histological analyses of AzaC-treated PGIA mice. Type of data set: in vivo, BALB/c mice.
Data set [2] concerns B cells of mice with PGIA. The data set is described as above. It is filed as in vivo, BALB/c mice. From the text:
RNA isolation, cDNA synthesis, and quantitative reverse transcription-polymerase chain reaction (qRT-PCR): Total RNA from cell culture was isolated using QIAmp RNA Blood Kit (Qiagen) or Direct-Zol™ RNA miniprep Kit (Zymo Research). Each RNA sample was digested with 4U of TurboDNase™ (Ambion) and purified with RNA clean and concentrator-5 (Zymo Research) and samples quantified using NanoDrop 1000 spectrophotometer. Primary mouse cells were collected from the spleens, on day 9 after the third PG injection. B cells were purified using antibody-coated magnetic beads (StemCell Technologies). RNA was isolated from purified mouse lymphocytes using a TRI reagent (Sigma-Aldrich) immediately after separation.
Genomic DNA (gDNA) purification, Global DNA methylation assessment and Methylated CpG island ecovery assay (MIRA)-assisted microarray (MIRA-chip) and data analysis: gDNA was isolated from affinity purified B cells using QIAamp DNA Mini Kit (Qiagen). Global DNA methylation analysis was performed using Imprint Methylated DNA Quantification kit (Sigma-Aldrich). Experiments were conducted according to manufacturer instructions MIRA enrichment of methylated gDNA fractions were performed by MethylCollector™ Ultra kit (Active Motif), captured fractions were labeled and hybridized to microarrays harboring all mouse promoters and CpG island outside of the promoter regions (NimbleGene). Data analysis was performed as described before.
In another embodiment, the effect of AzaC treatment on germinal center (GC) formation in animals was investigated. Germinal center formation was examined in control (DDA adjuvant-injected and arthritic non-treated) and arthritic AzaC-treated mice (FIG. 4(C-D)). […] Joint-draining lymph nodes (FIG. 4(C)) and spleens (FIG. 4(D)). DDA-injected (adjuvant control), vehicle-treated mice with PGIA and AzaC-treated mice with PGIA. Green-GL7 (activated B and T cell marker), Red-CD45/B220 (B cells), Blue-CD4 & CD8a (T cells). Arrows point to GCs. GC %-percentage of GC-containing follicles observed in the investigated lymph nodes and spleens (n=36 follicles from LNs, n=106 follicles from spleens). Green sidebars-percentage of GC carrying follicles. Red sidebars are follicles without GC.
This is another data set of the same source.

The subject of data set [3] is proteoglycan-induced arthritis (PGIA). The experiment in a line: Prophylactic AzaC treatment of mice with PGIA. Type of data set: in vivo, BALB/c mice. Particulars: prophylactic AzaC i.p. every other day from 10 days before expected onset. The procedure:
Mice: Retired breeder female BALB/c mice were purchased from the National Cancer Institute (NCI) and were used for the generation of cartilage proteoglycan-induced arthritis (PGIA). Briefly, the mice were immunized with PG purified from knee joint cartilage osteoarthritis patients who had undergone joint replacement surgery. PG was injected intraperitoneally (IP) 3 times (at 3-week intervals, 100 μg PG core protein/injection) with 2 mg of dimethyl-dioctadecyl-ammonium bromide adjuvant into BALB/c mice. Mice with acute arthritis were sacrificed 9 days after the 3rd PG immunization. Animal experiments were approved by the Institutional Animal Care and Use Committee at Rush University Medical Center, Chicago, Ill. […] Additional characteristics of RA are also present in other rodent models, but the above listed phenotypes and genotypes are present together only in PGIA.
First, the prophylactic effect of AzaC on arthritis development in mice with PGIA was investigated. AzaC treatment was started 10 days before the expected PGIA onset (on day 40 of the immunization) and was administered intraperitoneally (i.p.) every other day. The control group received saline solution (FIG. 3(A)). […] Female BALB/c mice were immunized 3 times with PG. Limbs were inspected regularly after the third PG injection for signs of arthritis, and a visual arthritis score was assigned to all paws. […]

For data set [4] the following is noted: cancer patients, effective dose; cited from earlier work.
[5] abbreviates: B cells of AzaC-treated PGIA mice, RT-qPCR.

“Also recorded” adds a separate entry of the source.

Turning to `Nc1ncn([C@@H]2O[C@H](CO)[C@@H](O)[C@H]2O)c(=O)n1` [AzaC, 4-Amino-1-(β-D-ribofuranosyl)-1,3,5-triazin-2(1H)-one], the “Histology of ankle joints” value in data set [1] (AzaC-treated arthritic versus naive (non-immunized) ankles) was “no detectable histological differences”. For the same compound, in data set [1] (bone marrow, flow cytometry), the “Immature B cell number” value was “significant decrease” and the Plasma cell number result was “reduced, but statistically not significant alteration”. Besides, the “Autoantibody titer (human PG-specific IgG1, ELISA)” value in data set [1] (sera of AzaC-treated PGIA mice) is “diminish autoantibody production; also recorded: significantly reduced”. In addition, the “Splenic marginal zone (MZ) and follicular B cell populations” value in data set [1] (spleen, flow cytometry) is reported as “no significant change”. In data set [2] (setting [5]), the “Ahr expression in vivo” value was “restore Ahr expression in vivo; also recorded: increased Ahr expression; also recorded: sufficient for releasing Ahr expression from DNA methylation-mediated blockage; also recorded: reactivated” and the “Aicda expression in vivo” value is on record as “markedly inhibited; also recorded: downregulation of Aicda expression”. Besides, the “DNA methylation level of Ahr promoter (MIRA)” value in data set [2] (B cells of AzaC-treated arthritic mice) is “erased arthritis-associated DNA hypermethylation; also recorded: reduced”. Moreover, the “Germinal center (GC) formation” value in data set [2] (spleen and draining lymph nodes) is “seriously impaired GC development and reduced GC number; also recorded: diminished; also recorded: impaired GC formation”. In addition, the “Post-recombinant IgG1 transcript level (class switch recombination)” value in data set [2] (splenic B cells of AzaC-treated PGIA mice, qRT-PCR) is recorded as “significantly decreased”. In addition, the “Development of PGIA (signs of disease)” value in data set [3] is listed as “No sign of the disease was observed; also recorded: prevents the development of arthritis; also recorded: prevents PGIA development”. Moreover, in data set [4], the “Adverse drug events / side effects” value was “triggers cytotoxicity and induces nausea, vomiting, fevers, diarrhea, rigors and many other side effects; also recorded: induces severe adverse drug events (ADEs)”.
